Measurements from PubChem BioAssay (NCI).
“And” between values parts separate entries of the source, which are not always exact repeats. Identical values can stand only once.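 1) Cells in 96-well plates. 2) Compound, 48 h, 5 concentrations. 3) Linear interpolation between surrounding doses. 4) Unreached endpoint = highest concentration. Here, GI50 denotes the concentration required for 50% inhibition of growth. TGI denotes the concentration required for complete inhibition of growth.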

Columns and labels:
Experiment in all cases: NCI tumour cell line growth inhibition, 48 h
[1] = system: 786-0 renal
[2] = system: A498 renal
[3] = system: A549 NSCLC
[4] = system: ACHN renal
[5] = system: BT-549 breast
[6] = system: CAKI-1 renal
[7] = system: CCRF-CEM leukemia
[8] = system: COLO 205 colon
[9] = system: DU-145 prostate
[10] = system: EKVX NSCLC
[11] = system: HCC-2998 colon
[12] = system: HCT-116 colon
[13] = system: HCT-15 colon
[14] = system: HL-60(TB) leukemia
[15] = system: HOP-62 NSCLC
[16] = system: HOP-92 NSCLC
[17] = system: HS 578T breast
[18] = system: HT29 colon
[19] = system: IGROV1 ovarian
[20] = system: K-562 leukemia
[21] = system: KM12 colon
[22] = system: LOX IMVI melanoma
[23] = system: M14 melanoma
[24] = system: MALME-3M melanoma
[25] = system: MCF7 breast
[26] = system: MDA-MB-231 breast
[27] = system: MDA-MB-435
[28] = system: MOLT-4 leukemia
[29] = system: NCI-H226 lung
[30] = system: NCI-H23 lung
[31] = system: NCI-H460 lung
[32] = system: NCI-H522 lung
[33] = system: NCI/ADR-RES ovarian
[34] = system: OVCAR-3 ovarian
[35] = system: OVCAR-4 ovarian
[36] = system: OVCAR-5 ovarian
[37] = system: OVCAR-8 ovarian
[38] = system: PC-3 prostate
[39] = system: RPMI-8226 leukemia
[40] = system: RXF 393 renal
[41] = system: SF-268 CNS
[42] = system: SF-295 CNS
[43] = system: SF-539 CNS
[44] = system: SK-MEL-2 melanoma
[45] = system: SK-MEL-28 melanoma
[46] = system: SK-MEL-5 melanoma
[47] = system: SK-OV-3 ovarian
[48] = system: SN12C renal
[49] = system: SNB-19 CNS
[50] = system: SNB-75 CNS
[51] = system: SR leukemia
[52] = system: SW-620 colon
[53] = system: T-47D breast
[54] = system: TK-10 renal
[55] = system: U251 CNS
[56] = system: UACC-257 melanoma
[57] = system: UACC-62 melanoma
[58] = system: UO-31 renal

COc1ccc(C2=N[C@@H](c3ccc(Cl)cc3)[C@@H](c3ccc(Cl)cc3)N2C(=O)N2CCNC(=O)C2)c(OC(C)C)c1
GI50 [1]: 14.9 µM and 16.6 µM and 17.3 µM
TGI [1]: 29 µM and 32.6 µM and 34 µM
GI50 [2]: 12.6 µM and 6.1 µM and 9.23 µM
TGI [2]: 25.6 µM and 21.9 µM and 24.1 µM
GI50 [3]: 13.3 µM and 3.9 µM and 3.65 µM
TGI [3]: 27.4 µM and 18.4 µM and 17.4 µM
GI50 [4]: 14.6 µM and 3.61 µM and 3.8 µM
TGI [4]: 29.4 µM and 15.1 µM and 16.1 µM
GI50 [5]: 12.6 µM and 14.9 µM and 15.4 µM
TGI [5]: 25.7 µM and 29.2 µM and 29.9 µM
GI50 [6]: 11.7 µM and 1.63 µM and 2.35 µM
TGI [6]: 24.7 µM and 12.9 µM and 14.5 µM
GI50 [7]: 14.7 µM and 16.8 µM and 18.4 µM
TGI [7]: 35.4 µM and 42.7 µM and 50 µM
GI50 [8]: 15 µM and 16.6 µM and 15.8 µM
TGI [8]: 29.4 µM and 34.6 µM and 32.2 µM
GI50 [9]: 15.2 µM and 15.8 µM and 16.6 µM
TGI [9]: 28.7 µM and 29.3 µM and 30.3 µM
GI50 [10]: 10.3 µM and 12.1 µM and 12.9 µM
TGI [10]: 24.1 µM and 25.2 µM and 27.3 µM
GI50 [11]: 14 µM and 15.7 µM and 12.8 µM
TGI [11]: 27.6 µM and 29.8 µM and 26 µM
GI50 [12]: 12.4 µM and 3.82 µM and 3.53 µM
TGI [12]: 25.4 µM and 18.4 µM and 18.7 µM
GI50 [13]: 14.3 µM and 14.5 µM and 14.9 µM
TGI [13]: 32.3 µM and 28.7 µM and 30.2 µM
GI50 [14]: 15.1 µM and 18.1 µM and 18.5 µM
TGI [14]: 35.8 µM and 42.3 µM and 51 µM
GI50 [15]: 16.5 µM and 15 µM and 16.1 µM
TGI [15]: 31.1 µM and 30.5 µM and 33.3 µM
GI50 [16]: 14.9 µM and 10.7 µM
TGI [16]: 31.9 µM and 23.9 µM and 24.8 µM
GI50 [17]: 15.6 µM and 17.3 µM and 17 µM
TGI [17]: 44 µM and 56 µM and 49.3 µM
GI50 [18]: 14.9 µM and 14.4 µM and 14.2 µM
TGI [18]: 31.4 µM and 28.2 µM and 29.1 µM
GI50 [19]: 13.1 µM and 6.5 µM and 5.08 µM
TGI [19]: 29.4 µM and 26.2 µM and 26.5 µM
GI50 [20]: 16.5 µM and 17.1 µM
TGI [20]: 61.6 µM and 53.1 µM and 74.1 µM
GI50 [21]: 15.9 µM
TGI [21]: 32 µM and 30 µM and 30.6 µM
GI50 [22]: 13.8 µM and 4.07 µM and 2.81 µM
TGI [22]: 27.4 µM and 19.3 µM and 18.3 µM
GI50 [23]: 14.1 µM and 14.9 µM and 16.3 µM
TGI [23]: 28.4 µM and 32 µM and 33.2 µM
GI50 [24]: 11.2 µM and 2.56 µM and 1.15 µM
TGI [24]: 25.6 µM and 16.4 µM and 17.1 µM
GI50 [25]: 13 µM and 2.43 µM and 2.27 µM
TGI [25]: 28.2 µM and 12.9 µM and 13 µM
GI50 [26]: 17.2 µM and 13 µM and 14.8 µM
TGI [26]: 38.4 µM and 27.1 µM and 29.6 µM
GI50 [27]: 14.2 µM and 13.6 µM and 16.1 µM
TGI [27]: 27.9 µM and 27.5 µM and 33.3 µM
GI50 [28]: 7.54 µM and 3.5 µM and 2.74 µM
TGI [28]: 28.4 µM and > 36.2 µM and 17.2 µM
GI50 [29]: 13.7 µM and 1.57 µM and 1.56 µM
TGI [29]: 30.2 µM and 6.83 µM and 5.86 µM
GI50 [30]: 16 µM and 15.8 µM and 16.4 µM
TGI [30]: 32.1 µM and 33.2 µM and 34.8 µM
GI50 [31]: 14.8 µM and 3.04 µM and 2.17 µM
TGI [31]: 29.9 µM and 16.3 µM and 14.8 µM
GI50 [32]: 14.6 µM and 13.6 µM and 16.3 µM
TGI [32]: 28.5 µM and 27.3 µM and 31.1 µM
GI50 [33]: 16.9 µM and 16.7 µM and 16.2 µM
TGI [33]: 35 µM and 37.8 µM and 37.1 µM
GI50 [34]: 14 µM and 13.1 µM and 13.7 µM
TGI [34]: 27.2 µM and 26 µM and 26.8 µM
GI50 [35]: 12.1 µM and 12.5 µM and 13.7 µM
TGI [35]: 24.9 µM and 26 µM and 31.5 µM
GI50 [36]: 17.1 µM and 16.3 µM and 17.3 µM
TGI [36]: 34 µM and 32.2 µM and 34.1 µM
GI50 [37]: 15.2 µM and 15.1 µM and 14.8 µM
TGI [37]: 31.1 µM and 30.9 µM and 30.1 µM
GI50 [38]: 11.2 µM and 11.1 µM and 12.3 µM
TGI [38]: 26.7 µM and 24.9 µM and 28 µM
GI50 [39]: 14.6 µM and 16.6 µM and 16.4 µM
TGI [39]: > 63.7 µM and 62.7 µM and 56.8 µM
GI50 [40]: 12.3 µM and 12.7 µM and 13.9 µM
TGI [40]: 25.4 µM and 25.9 µM and 27.8 µM
GI50 [41]: 13.9 µM and 13.1 µM and 14 µM
TGI [41]: 28 µM and 26.5 µM and 27.9 µM
GI50 [42]: 12.6 µM and 12.9 µM and 14.9 µM
TGI [42]: 27.3 µM and 26.8 µM and 30.4 µM
GI50 [43]: 16.5 µM and 17.2 µM and 17.8 µM
TGI [43]: 32 µM and 32.9 µM and 35.1 µM
GI50 [44]: 16.3 µM and 14.6 µM and 15.9 µM
TGI [44]: 30.9 µM and 29 µM and 30.6 µM
GI50 [45]: 15.8 µM and 15.3 µM and 16.5 µM
TGI [45]: 30.8 µM and 29.6 µM and 32.2 µM
GI50 [46]: 14.1 µM and 5.35 µM and 6.56 µM
TGI [46]: 27.2 µM and 17.7 µM and 19.6 µM
GI50 [47]: 16.8 µM and 15.9 µM and 15.4 µM
TGI [47]: 30.8 µM and 30.9 µM and 30.4 µM
GI50 [48]: 15.6 µM and 14.9 µM and 14.1 µM
TGI [48]: 34 µM and 29.9 µM and 28.7 µM
GI50 [49]: 12.5 µM and 15.5 µM and 14.6 µM
TGI [49]: 26.1 µM and 30.1 µM and 28.2 µM
GI50 [50]: 13.4 µM and 11.8 µM and 11.9 µM
TGI [50]: 26.5 µM and 25.1 µM and 26.2 µM
GI50 [51]: 11.7 µM and 2.07 µM and 1.19 µM
TGI [51]: 36.5 µM and 23.9 µM and 17 µM
GI50 [52]: 17.1 µM and 18.2 µM and 16.7 µM
TGI [52]: 33.6 µM and 37.4 µM and 34 µM
GI50 [53]: 14.6 µM and 10.5 µM and 15.2 µM
TGI [53]: 30.4 µM and 27.4 µM and 40.6 µM
GI50 [54]: 16.1 µM and 14.6 µM and 14.8 µM
TGI [54]: 29.9 µM and 27.7 µM and 28 µM
GI50 [55]: 13.7 µM and 14.8 µM and 16.2 µM
TGI [55]: 27.2 µM and 29.5 µM and 31.6 µM
GI50 [56]: 13.2 µM and 4.26 µM and 3.98 µM
TGI [56]: 26.5 µM and 19.3 µM and 18.3 µM
GI50 [57]: 11.3 µM and 2.76 µM and 1.38 µM
TGI [57]: 25.3 µM and 19.2 µM and 16.6 µM
GI50 [58]: 5.92 µM and 3.77 µM and 2.63 µM
TGI [58]: 20.7 µM and 17.5 µM and 15.9 µM
